Activity calls are given as the source filed them. No cut-off for these calls is given here.
Columns and labels:
[1] = test system: DU-145; test: Antiproliferative activity against human DU145 cells at 10 uM after 48 hrs by 2-D dish-based WST-assay; type: functional; details: DU-145, 48 h
[2] = test system: DU-145; test: Antiproliferative activity against human DU145 cells at 1 uM after 48 hrs by 2-D dish-based WST-assay; type: functional; details: DU-145, 48 h
[3] = test system: DU-145; test: Antiproliferative activity against human DU145 cells at 1 uM after 7 days by 3-D agar-based WST-assay; type: functional; details: DU-145, 168 h
[4] = test system: DU-145; test: Antiproliferative activity against human DU145 cells at 10 uM after 7 days by 3-D agar-based WST-assay; type: functional; details: DU-145, 168 h
[5] = test system: DU-145; test: Anticancer activity against human DU145 cells xenografted in mouse assessed as tumor growth inhibition at 32 mg/kg, sc administered daily for 6 days; type: functional, organism-based; parameters: dose 32 mg/kg
[6] = target: T1, Alpha-ketoglutarate-dependent dioxygenase alkB homolog 3 (Homo sapiens, UniProt Q96Q83); test: Inhibition of demethylase activity of PCA-1 (unknown origin) using 3-methyl cytosine oligo DNA as substrate after 1 hr by RT-PCR analysis
T1 sequence (Q96Q83 whole entry): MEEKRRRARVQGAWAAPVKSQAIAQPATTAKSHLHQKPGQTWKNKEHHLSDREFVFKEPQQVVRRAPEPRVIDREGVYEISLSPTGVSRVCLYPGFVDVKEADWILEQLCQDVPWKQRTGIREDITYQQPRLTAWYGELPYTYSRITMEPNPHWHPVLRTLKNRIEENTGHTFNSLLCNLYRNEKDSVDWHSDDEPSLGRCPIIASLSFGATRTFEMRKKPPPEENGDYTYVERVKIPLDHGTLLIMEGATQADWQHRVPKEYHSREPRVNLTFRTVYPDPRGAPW

[7] = target: T2, Alpha-ketoglutarate-dependent dioxygenase alkB homolog 3 (Homo sapiens) (UniProt Q96Q83); test: Inhibition of demethylase activity of PCA-1 (unknown origin) using 3-methyl cytosine oligo DNA as […] after 1 hr by RT-PCR analysis
T2 sequence (whole entry): T1 sequence (Q96Q83 whole entry)

[8] = Cmax in Sprague-Dawley rat serum at 32 mg/kg, po; type: ADME, organism-based; parameters: dose 32 mg/kg, route oral
[9] = test system: Mus musculus; test: Toxicity in human DU145 cells xenografted mouse model assessed as body weight at 32 mg/kg, sc administered daily for 6 days; type: organism-based, DU-145; parameters: dose 32 mg/kg, route subcutaneous; details: in vivo, 144 h
[10] = AUC (0 to 24 hrs) in Sprague-Dawley rat serum at 32 mg/kg, po; type: ADME, organism-based; parameters: time < 24 hr, dose 32 mg/kg, route oral
[11] = Oral bioavailability in Sprague-Dawley rat at 32 mg/kg; type: ADME, organism-based; details: in vivo
[12] = AUC (0 to 24 hrs) in Sprague-Dawley rat serum at 0.5 mg/kg, iv; type: ADME, organism-based; parameters: time < 24 hr, dose 0.5 mg/kg, route intravenous
[13] = Initial plasma concentration in Sprague-Dawley rat serum at 0.5 mg/kg, iv; type: ADME, organism-based; parameters: dose 0.5 mg/kg, route intravenous
[14] = target: T2, Alpha-ketoglutarate-dependent dioxygenase alkB homolog 3 (Homo sapiens); details: 10 uM
Description: Inhibition of PCA-1 (unknown origin) at 10 uM

[15] = test system: Mus musculus; test: Toxicity in human DU145 cells xenografted mouse model assessed as abnormal behavior at 32 mg/kg, sc administered daily for 6 days; type: organism-based, DU-145; parameters: dose 32 mg/kg, route subcutaneous; details: in vivo, 144 h
[16] = test system: Mus musculus; test: Toxicity in human DU145 cells xenografted mouse model assessed as abnormality in organs at 32 mg/kg, sc administered daily for 6 days; type: organism-based, DU-145; parameters: dose 32 mg/kg, route subcutaneous; details: in vivo, 144 h
[17] = Drug level in Sprague-Dawley rat serum at 32 mg/kg, po after 1 hr; type: ADME, organism-based; parameters: dose 32 mg/kg, route oral

| IC50 [6] | Structure (SMILES) | also measured |
| --- | --- | --- |
| – | Cc1ccc2[nH]c(-n3[nH]c(C)c(Cc4ccccc4)c3=O)nc2c1 | inhibition at 10 µM [1]: 54%; inhibition at 1 µM [2]: 35%; inhibition at 1 µM [3]: 34%; inhibition at 10 µM [4]: 81%; TGI [5]: Active |
| > 10000 nM | Cc1[nH]n(-c2ccccn2)c(=O)c1C | inhibition [7]: -4% |
| 4300 nM | COC(=O)Cc1c(C)[nH]n(-c2nc3ccccc3[nH]2)c1=O | – |
| 7200 nM | O=c1cc(-c2ccccc2)[nH]n1-c1nc2ccccc2[nH]1 | – |
| 5800 nM | Cc1ccc2[nH]c(-n3nc(-c4ccccc4)c(-c4ccccc4)c3O)nc2c1 | – |
| 670 nM | Cc1ccc2nc(-n3[nH]c(C)c(Cc4ccccc4)c3=O)[nH]c2c1 | Cmax [8]: 350 ng/mL; Activity [9]: Non-toxic; AUC(0-t) at 24 h [10]: 690 ng·h/mL; bioavailability [11]: 7.2%; AUC(0-t) at 24 h [12]: 150 ng·h/mL; C0 [13]: 430 ng/mL |
| 600 nM | Cc1[nH]n(-c2nc3ccccc3[nH]2)c(=O)c1Cc1ccc(F)cc1 | – |
| 610 nM | Cc1[nH]n(-c2nc3cc(C(F)(F)F)ccc3[nH]2)c(=O)c1Cc1ccccc1 | inhibition at 10 µM [1]: 84%; inhibition at 1 µM [2]: 78%; inhibition at 1 µM [3]: 90%; inhibition at 10 µM [4]: 92% |
| > 10000 nM | Cc1[nH]n(-c2nc3ccccc3o2)c(=O)c1C | inhibition [7]: 0% |
| 5300 nM | Cc1ccc2nc(-n3[nH]c(C)c(Cc4ccc(-c5ccccc5)cc4)c3=O)[nH]c2c1 | – |
| 4100 nM | Cc1[nH]n(-c2nc3ccccc3[nH]2)c(=O)c1Cc1ccc(C(C)(C)C)cc1 | – |
| 3700 nM | Cc1ccc2[nH]c(-n3[nH]c(C)c(Cc4ccc(C(C)(C)C)cc4)c3=O)nc2c1 | – |
| 4000 nM | Cc1[nH]n(-c2nc3ccccc3[nH]2)c(=O)c1C | inhibition at 10 µM [1]: 0.8%; inhibition [14]: 76% |
| > 10000 nM | O=c1c(Cc2ccccc2)c(-c2ccccc2)[nH]n1-c1nc2ccccc2[nH]1 | inhibition [7]: 2% |
| 15000 nM | Cc1[nH]n(-c2nc3ccccc3[nH]2)c(=O)c1CC(=O)O | – |
| 4500 nM | Cc1[nH]n(-c2nc3cc(Cl)ccc3[nH]2)c(=O)c1Cc1ccccc1 | inhibition at 1 µM [2]: 86%; inhibition at 1 µM [3]: 84%; inhibition at 10 µM [4]: 87% |
| 780 nM | Cc1ccc2[nH]c(-n3[nH]c(C)c(Cc4ccc(F)cc4)c3=O)nc2c1 | – |
| > 10000 nM | Cc1ccc2nc(-n3[nH]c(C)c(Cc4ccccc4)c3=O)[nH]c2c1C | – |
| 3100 nM | Cc1[nH]n(-c2nc3ccccc3[nH]2)c(=O)c1Cc1ccc(Cl)c(Cl)c1 | – |
| 720 nM | Cc1[nH]n(-c2nc3ccccc3[nH]2)c(=O)c1Cc1ccc(-c2ccccc2)cc1 | – |
| 630 nM | COc1ccc(Cc2c(C)[nH]n(-c3nc4ccccc4[nH]3)c2=O)cc1 | Activity [15]: Non-toxic; Activity [16]: Non-toxic |
| > 10000 nM | Cc1[nH]n(-c2ncccn2)c(=O)c1C | inhibition [7]: -4% |
| 2000 nM | Oc1c(-c2ccccc2)c(-c2ccccc2)nn1-c1nc2cc(Cl)ccc2[nH]1 | – |
| > 10000 nM | Cc1[nH]n(-c2ccccc2)c(=O)c1C | inhibition [7]: 20% |
| > 10000 nM | Cc1[nH]n(-c2nc3c(C)cccc3[nH]2)c(=O)c1C | – |

| IC50 [6] | Structure (SMILES) | also measured |
| --- | --- | --- |
| 1700 nM | Cc1[nH]n(-c2ccccn2)c(=O)c1C(=O)Nc1ccccc1 | inhibition at 10 µM [1]: 25% |
| > 10000 nM | Cc1[nH]n(-c2nc3ccccc3[nH]2)c(=O)c1Cc1ccc(Cl)cc1 | inhibition [7]: 46% |
| > 10000 nM | Cc1[nH]n(-c2nc3ccccc3[nH]2)c(=O)c1Cc1ccccc1Cl | – |
| > 10000 nM | Cc1[nH]n(-c2nc3ccccc3n2C)c(=O)c1C | inhibition [7]: 21% |
| 3300 nM | Cc1ccc2[nH]c(-n3[nH]c(-c4ccccc4)c(C)c3=O)nc2c1 | – |
| 640 nM | Cc1[nH]n(-c2nc3ccc(C(C)(C)C)cc3[nH]2)c(=O)c1Cc1ccccc1 | – |
| 5900 nM | Cc1[nH]n(-c2nc3c(C)cccc3[nH]2)c(=O)c1Cc1ccccc1 | – |
| > 10000 nM | Cc1c(-c2ccccc2)[nH]n(-c2nc3ccccc3[nH]2)c1=O | – |
| 680 nM | COc1ccc(Cc2c(C)[nH]n(-c3nc4ccc(C)cc4[nH]3)c2=O)cc1 | – |
| 1500 nM | Cc1[nH]n(-c2nc3cc(-c4ccc(Cl)cc4)ccc3[nH]2)c(=O)c1Cc1ccccc1 | inhibition at 10 µM [1]: 63%; inhibition at 1 µM [2]: 70%; inhibition at 1 µM [3]: 91%; inhibition at 10 µM [4]: 100% |
| 810 nM | Cc1[nH]n(-c2nc3cc(-c4ccccc4)ccc3[nH]2)c(=O)c1Cc1ccccc1 | – |
| 480 nM | Cc1nn(-c2nc3ccccc3[nH]2)c(O)c1Cc1ccccc1 | inhibition at 10 µM [1]: 47%; inhibition at 1 µM [2]: 42%; inhibition at 1 µM [3]: 42%; inhibition at 10 µM [4]: 90% |
| 910 nM | Cc1ccc2[nH]c(-n3[nH]c(C)c(Cc4ccccc4Cl)c3=O)nc2c1 | – |
| 550 nM | Cc1[nH]n(-c2nc3ccccc3[nH]2)c(=O)c1Cc1ccc(C(F)(F)F)cc1 | – |
| 540 nM | Cc1[nH]n(-c2nc3ccccc3[nH]2)c(=O)c1Cc1cccc(Cl)c1 | – |
| > 10000 nM | Cc1[nH]n(-c2nc3ccccc3s2)c(=O)c1C | inhibition [7]: -3% |
| 750 nM | Cc1ccc2[nH]c(-n3[nH]c(C)c(Cc4ccc(Cl)cc4)c3=O)nc2c1 | inhibition at 10 µM [1]: 46%; inhibition at 1 µM [2]: -1%; inhibition at 1 µM [3]: 2.8%; inhibition at 10 µM [4]: 90% |
| 2100 nM | Cc1ccc(-c2ccc3[nH]c(-n4[nH]c(C)c(Cc5ccccc5)c4=O)nc3c2)cc1 | – |
| 3600 nM | Cc1cc(O)n(-c2nc3ccccc3[nH]2)n1 | – |
| > 10000 nM | Cc1[nH]n(-c2nc3ccccc3[nH]2)c(=O)c1Cc1ccc(Cl)cc1Cl | inhibition [7]: 11% |
| 490 nM | Cc1[nH]n(-c2nc3cc(Br)ccc3[nH]2)c(=O)c1Cc1ccccc1 | – |
| 2600 nM | Cc1ccc2[nH]c(-n3[nH]c(C)c(C)c3=O)nc2c1 | inhibition at 10 µM [1]: 19%; inhibition at 1 µM [2]: -11%; inhibition at 1 µM [3]: 3.8%; inhibition at 10 µM [4]: 69%; concentration at 1 h [17]: 1080 ng/mL |
| 720 nM | Cc1ccc2[nH]c(-n3[nH]c(C)c(Cc4ccc(Cl)c(Cl)c4)c3=O)nc2c1 | – |
| 750 nM | Cc1[nH]n(-c2nc3ccccc3[nH]2)c(=O)c1Cc1ccc2ccccc2c1 | – |
| 570 nM | Cc1ccc2nc(-n3[nH]c(C)c(Cc4ccc(C(F)(F)F)cc4)c3=O)[nH]c2c1 | – |
